According to the supplement of paper PMC10883282:

Legend:
Experiment in all cases: relative viability vs DMSO control (72 h) (fraction); higher = more viable cells
[1] = tested on: G401
How it was run: (§1)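 Sarcoma cell lines went into 384-well plates at densities chosen to reach 80–90% confluence. After 24 h, each well received 2.5 µl of serially diluted compound, with source plates running from 10 mM to 0.0002 mM, and the plates were kept 72 h at 37 °C, 5% CO2, alongside 0.1% DMSO vehicle and a 5 µM positive control. Relative viability was derived from ATPLite readings as percent growth and averaged over up to triplicate wells. The data were then rescaled so that 1 stands for full and 0 for none.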

[2] = tested on: SK-ES-1
How it was run: as §1

[3] = tested on: SYO-1
How it was run: as §1

[4] = tested on: HS729
How it was run: as §1

[5] = tested on: SW872
How it was run: as §1

[6] = tested on: SK-LMS-1
How it was run: as §1

[7] = tested on: RD
How it was run: as §1

[8] = tested on: VA-ES-BJ
How it was run: as §1

[9] = tested on: MES-SA
How it was run: as §1

[10] = tested on: SW684
How it was run: as §1

[11] = tested on: KHOS-NP
How it was run: as §1

[12] = tested on: A204
How it was run: as §1

C1=N/C2=N/c3ccc(OCCN4CCCC4)c(c3)COC/C=C/COCc3cccc(c3)C(=C1)N2 [Pacritinib]
Details	relative viability
[1], 0.00017 µM	1.05
[1], 0.00051 µM	1.09
[1], 0.00152 µM	1.02
[1], 0.00457 µM	1.06
[1], 0.01372 µM	1.03
[1], 0.04115 µM	1
[1], 0.1235 µM	0.966
[1], 0.3704 µM	0.868
[1], 1.111 µM	0.552
[1], 3.333 µM	0.044
[1], 10 µM	0.0119
[2], 0.00017 µM	1.07
[2], 0.00051 µM	1.06
[2], 0.00152 µM	1.06
[2], 0.00457 µM	1.02
[2], 0.01372 µM	1.07
[2], 0.04115 µM	0.989
[2], 0.1235 µM	0.945
[2], 0.3704 µM	0.593
[2], 1.111 µM	0.222
[2], 3.333 µM	0.00983
[2], 10 µM	0.00643
[3], 0.00017 µM	1.01
[3], 0.00051 µM	1.01
[3], 0.00152 µM	0.997
[3], 0.00457 µM	0.985
[3], 0.01372 µM	1.01
[3], 0.04115 µM	0.952
[3], 0.1235 µM	0.932
[3], 0.3704 µM	0.748
[3], 1.111 µM	0.244
[3], 3.333 µM	0.0093
[3], 10 µM	0.00973
[4], 0.00017 µM	1.1
[4], 0.00051 µM	1.055
[4], 0.00152 µM	1.03
[4], 0.00457 µM	1
[4], 0.01372 µM	1.02
[4], 0.04115 µM	0.9592
[4], 0.1235 µM	0.947
[4], 0.3704 µM	0.928
[4], 1.111 µM	0.698
[4], 3.333 µM	0.576
[4], 10 µM	0.232
[5], 0.00017 µM	1.11
[5], 0.00051 µM	1.08
[5], 0.00152 µM	1.08
[5], 0.00457 µM	1.1
[5], 0.01372 µM	1.1
[5], 0.04115 µM	1.06
[5], 0.1235 µM	1.02
[5], 0.3704 µM	0.839
[5], 1.111 µM	0.541
[5], 3.333 µM	0.131
[5], 10 µM	0.0932
[6], 0.00017 µM	1.1
[6], 0.00051 µM	1.136
[6], 0.00152 µM	1.08
[6], 0.00457 µM	1.085
[6], 0.01372 µM	1.08
[6], 0.04115 µM	1.08
[6], 0.1235 µM	1.1
[6], 0.3704 µM	1.116
[6], 1.111 µM	0.959
[6], 3.333 µM	0.539
[6], 10 µM	0.2186
[7], 0.00017 µM	1.08
[7], 0.00051 µM	1.1
[7], 0.00152 µM	1.12
[7], 0.00457 µM	1.11
[7], 0.01372 µM	1.13
[7], 0.04115 µM	1.111
[7], 0.1235 µM	1.07
[7], 0.3704 µM	0.823
[7], 1.111 µM	0.462
[7], 3.333 µM	0.158
[7], 10 µM	0.144
[8], 0.00017 µM	1.11
[8], 0.00051 µM	1.11
[8], 0.00152 µM	1.09
[8], 0.00457 µM	1.07
[8], 0.01372 µM	1.06
[8], 0.04115 µM	1.08
[8], 0.1235 µM	1.02
[8], 0.3704 µM	0.855
[8], 1.111 µM	0.149
[8], 3.333 µM	0.0927
[8], 10 µM	0.0817
[9], 0.00017 µM	0.966
[9], 0.00051 µM	0.9661
[9], 0.00152 µM	0.953
[9], 0.00457 µM	0.951
[9], 0.01372 µM	0.938
[9], 0.04115 µM	0.936
[9], 0.1235 µM	0.937
[9], 0.3704 µM	0.794
[9], 1.111 µM	0.46
[9], 3.333 µM	0.0101
[9], 10 µM	0.00167
[10], 0.00017 µM	1.14
[10], 0.00051 µM	1.17
[10], 0.00152 µM	1.15
[10], 0.00457 µM	1.19
[10], 0.01372 µM	1.15
[10], 0.04115 µM	1.11
[10], 0.1235 µM	0.977
[10], 0.3704 µM	0.781
[10], 1.111 µM	0.544
[10], 3.333 µM	0.189
[10], 10 µM	0.0544
[11], 0.00017 µM	1.09
[11], 0.00051 µM	1.12
[11], 0.00152 µM	1.107
[11], 0.00457 µM	1.11
[11], 0.01372 µM	1.125
[11], 0.04115 µM	1.117
[11], 0.1235 µM	1.116
[11], 0.3704 µM	1.112
[11], 1.111 µM	0.996
[11], 3.333 µM	0.451
[11], 10 µM	0.516
[12], 0.00017 µM	1.07
[12], 0.00051 µM	1.05
[12], 0.00152 µM	1.07
[12], 0.00457 µM	1.1
[12], 0.01372 µM	1.07
[12], 0.04115 µM	1.02
[12], 0.1235 µM	0.918
[12], 0.3704 µM	0.654
[12], 1.111 µM	0.398
[12], 3.333 µM	0.0367
[12], 10 µM	0.0523
